Results published in patent US20070190145A1, “DRUG DELIVERY SYSTEMS COMPRISING WEAKLY BASIC SELECTIVE SEROTONIN 5-HT3 BLOCKING AGENT AND ORGANIC ACIDS” (EURAND, INC., priority 2006, published 2007).
Converted amounts (≈) assume the structure as drawn. Where two headings read alike, the source gives them in different places.

Assays:
pH-dependent solubility = assay type: physicochemical
Description: Although carvedilol's solubility is similarly pH-dependent and varying, it is not obvious from FIG. 1 as it rapidly undergoes in situ salt formation with the buffering agent such as citric, acetic, and hydrochloric acids and consequently, the observed solubility is that of the salt formed in-situ.

[1] = PK modeling (WinNonlin 1-compartment fit, Stella simulation) of 8 mg ondansetron hydrochloride IR tablet plasma data
Experimental: In order to assess the type of in vitro release profile needed to achieve a once-daily plasma concentration profile, a modeling exercise was performed using the pharmacokinetic parameters for ondansetron hydrochloride reported in “Ondansetron Absorption in Adults: Effect of Dosage Form, Food, and Antacids” in Journal of Pharmaceutical Sciences Vol. (1994) by Bozigian et al. Mean plasma concentrations achieved in 24 healthy, adult male volunteers, who received a single 8 mg ondansetron hydrochloride IR tablet in the fasted state, were used using the software program, WinNonlin™ Standard Version 2.1 to fit a 1-compartment first order model with a lag-time assuming first order elimination kinetics.
The primary parameters were then input into another software, Stella Version 6.01 using a previously established model with slight modifications. Different in vitro release profiles were generated, and from target once-daily release profiles, desired in vitro release (medium, target and fast) profiles were generated by deconvolution.

[2] = Solubilities of weakly basic drugs in organic acid buffers
[3] = in vivo; cited from earlier work
[4] = single 8 mg IR tablet, fasted, 1-compartment model fit
[5] = single 8 mg IR tablet, fasted, secondary parameter

## COc1ccccc1OCCNCC(O)COc1cccc2[nH]c3ccccc3c12 (racemic) [Carvedilol]
pH 2.12
  Solubility (mg/mL) of Carvedilol in Tartaric Acid: 2.51 mg/mL
pH 2.28
  Solubility (mg/mL) of Carvedilol in Tartaric Acid: 1.36 mg/mL
pH 3.64
  Solubility (mg/mL) of Carvedilol in Tartaric Acid: 0.121 mg/mL
pH 5.46
  Solubility (mg/mL) of Carvedilol in Tartaric Acid: 0.105 mg/mL
pH 5.9
  Solubility (mg/mL) of Carvedilol in Tartaric Acid: 0.028 mg/mL

## OCCN(CCO)c1nc(N2CCCCC2)c2nc(N(CCO)CCO)nc(N3CCCCC3)c2n1 [Dipyridamole]
pH-dependent solubility; aqueous buffer, at pH 6.8
  solubility: 30 µg/mL (≈ 59.4 µM)
pH-dependent solubility; simulated gastric fluid, in 0.1N HCl
  solubility: ~1000 µg/mL (≈ 1980 µM)
physchem; pH 2.98, aqueous buffer
  solubility: 6240 µg/mL (≈ 12400 µM)
physchem; pH 3.42, aqueous buffer
  solubility: 1800 µg/mL (≈ 3570 µM)
physchem; pH 3.68, aqueous buffer
  solubility: 930 µg/mL (≈ 1840 µM)
physchem; pH 3.88, aqueous buffer
  solubility: 650 µg/mL (≈ 1290 µM)
physchem; pH 4.33, aqueous buffer
  solubility: 270 µg/mL (≈ 535 µM)
physchem; pH 4.71, aqueous buffer
  solubility: 130 µg/mL (≈ 258 µM)
physchem; pH 6.28, aqueous buffer
  solubility: 6 µg/mL (≈ 11.9 µM)

## Cc1nccn1CC1CCc2c(c3ccccc3n2C)C1=O.Cl.O.O (racemic) [Ondansetron Hydrochloride, (±) 1,2,3,9-tetrahydro-9-methyl-3-[(2-methyl-1H-imidazole-1-yl)methyl]-4H-carbazol-4-one monohydrochloride dihydrate]
pH-dependent solubility; aqueous buffer, at pH 6.8
  solubility: ~50 µg/mL
pH-dependent solubility; optimal highest dose 16 or 24 mg, pH 6.8
  ratio of optimal highest dose (mg) to the solubility (mg/mL) at pH 6.8: 320
[1]; male, human, plasma
  t1/2: 3.65 h
[1]; single 8 mg IR tablet, fasted, 24 healthy adult male volunteers, 1-compartment first order model fit
  Vd: 238.26
[1]; [4]
  Ka: 1.49 per hour
  Ke: 0.19 per hr
  Tlag: 0.41 h
[1]; [5]
  AUC: 170 ng·h/mL
  Cl: 46.06 L/h
  Cm: 0.0248 mg/L
  Tmax: 1.98 h
[2]; pH 2.01, aqueous buffer, Solubility of Ondansetron Hydrochloride, fumaric acid 5 mg/mL, start pH 2.13, end pH 2.01
  solubility: 26900 µg/mL
[2]; pH 2.14, aqueous buffer, Solubility of Ondansetron Hydrochloride, fumaric acid 2.5 mg/mL, start pH 2.26, end pH 2.14
  solubility: 27000 µg/mL
[2]; pH 2.4, aqueous buffer, Solubility of Ondansetron Hydrochloride, fumaric acid 1 mg/mL, start pH 2.48, end pH 2.40
  solubility: 26100 µg/mL
[2]; pH 2.75, aqueous buffer, Solubility of Ondansetron Hydrochloride, fumaric acid 0.25 mg/mL, start pH 2.79, end pH 2.75
  solubility: 26200 µg/mL
[2]; pH 3.49, aqueous buffer, Solubility of Ondansetron Hydrochloride, fumaric acid 0.05 mg/mL, start pH 3.19, end pH 3.49
  solubility: 26000 µg/mL
[2]; pH 3.49, aqueous buffer, solubility, buffer containing only 0.05 mg/mL of fumaric acid, unchanged up to 5 mg/mL
  solubility: ~26000 µg/mL
[2]; pH 4.05, aqueous buffer, Solubility of Ondansetron Hydrochloride, fumaric acid 0.01 mg/mL, start pH 3.64, end pH 4.05
  solubility: 26100 µg/mL
[2]; pH 4.33, aqueous buffer, Solubility of Ondansetron Hydrochloride, fumaric acid 0.0025 mg/mL, start pH 4.15, end pH 4.33
  solubility: 26100 µg/mL
[3]
  elimination half-life: approximately 3.8±1 hrs

## Nc1nnc(-c2cccc(Cl)c2Cl)c(N)n1 [Lamotrigine]
physchem; pH 2.43, aqueous buffer
  solubility: 4480 µg/mL (≈ 17500 µM)
physchem; pH 3.33, aqueous buffer
  solubility: 1770 µg/mL (≈ 6910 µM)
physchem; pH 4.36, aqueous buffer
  solubility: 1610 µg/mL (≈ 6290 µM)
physchem; pH 4.97, aqueous buffer
  solubility: 488 µg/mL (≈ 1910 µM)
physchem; pH 5.66, aqueous buffer
  solubility: 226 µg/mL (≈ 882 µM)
physchem; pH 5.85, aqueous buffer
  solubility: 197 µg/mL (≈ 769 µM)
physchem; pH 6.5, aqueous buffer
  solubility: 161 µg/mL (≈ 629 µM)

## O=C1CN=C(c2ccccc2Cl)c2cc([N+](=O)[O-])ccc2N1 [Clonazepam]
[2]; Group C actives
  solubility enhancement by organic acid: less than 3 fold
[2]; pH 2.3, aqueous buffer, solubility, fumaric acid buffer at pH 2.3 (higher acid concentration)
  solubility: ~11.6 µg/mL (≈ 36.7 µM)
[2]; pH 3.2, aqueous buffer, Solubility (mg/mL) of Clonazepam in Fumaric Acid, pH of buffer 3.2
  solubility: 9.6 µg/mL (≈ 30.4 µM)
[2]; pH 3.7, aqueous buffer, Solubility (mg/mL) of Clonazepam in Fumaric Acid, pH of buffer 3.7
  solubility: 9.8 µg/mL (≈ 31 µM)
[2]; pH 4.8, aqueous buffer, Solubility (mg/mL) of Clonazepam in Fumaric Acid, pH of buffer 4.8
  solubility: 9.5 µg/mL (≈ 30.1 µM)
[2]; pH 5.5, aqueous buffer, Solubility (mg/mL) of Clonazepam in Fumaric Acid, pH of buffer 5.5
  solubility: 9.3 µg/mL (≈ 29.5 µM)
[2]; pH 6.2, aqueous buffer, Solubility (mg/mL) of Clonazepam in Fumaric Acid, pH of buffer 6.2
  solubility: 7.2 µg/mL (≈ 22.8 µM)
[2]; pH 6.8, aqueous buffer, Solubility (mg/mL) of Clonazepam in Fumaric Acid, pH of buffer 6.8
  solubility: 6.9 µg/mL (≈ 21.9 µM)
[2]; pH 6.8, aqueous buffer, solubility, fumaric acid buffer at pH 6.8 (lower acid concentration)
  solubility: ~6.9 µg/mL (≈ 21.9 µM)
[2]; pH of buffer 2.3
  Solubility (mg/mL) of Clonazepam in Fumaric Acid: 0.0116 mg/mL
[2]; pH of buffer 2.8
  Solubility (mg/mL) of Clonazepam in Fumaric Acid: 0.0103 mg/mL
